Measured values: paper PMC12002330 (Proceedings of the National Academy of Sciences of the …, 2025)
Like-named read-outs stand apart in the source and are kept apart here.

Key:
[1] = target: NS4B/NS3 interaction (WT NS4B) (Dengue virus type 2, UniProt P14340); type: cell-based
WT DENV-2 NS4B = WT DENV-2 NS4B (Dengue virus type 2, UniProt P29990); assay: ITC binding of inhibitor to NS4B
DENV-2 NGC strain (WT) = assay: microbe, parasite or virus in culture; type: cell-based
four serotypes of DENV = settings: cited from earlier work
DENV-2 NGC-Nluc = assay: Antiviral assay using NGC-Nluc in Huh7 cells; type: cell-based
[2] = target: NS4B peptide 121-171 (cytosolic loop) (Dengue virus type 2, UniProt P29990); type: binding; settings: aa 121 to 171
Chain of NS4B peptide 121-171 (cytosolic loop) (P29990 2364-2414): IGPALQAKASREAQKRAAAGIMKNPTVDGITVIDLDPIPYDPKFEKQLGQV

[3] = target: DENV-2 NS4B/NS3 interaction (Dengue virus type 2, UniProt P29990); type: binding
Chain of DENV-2 NS4B/NS3 interaction (P29990 2244-2491): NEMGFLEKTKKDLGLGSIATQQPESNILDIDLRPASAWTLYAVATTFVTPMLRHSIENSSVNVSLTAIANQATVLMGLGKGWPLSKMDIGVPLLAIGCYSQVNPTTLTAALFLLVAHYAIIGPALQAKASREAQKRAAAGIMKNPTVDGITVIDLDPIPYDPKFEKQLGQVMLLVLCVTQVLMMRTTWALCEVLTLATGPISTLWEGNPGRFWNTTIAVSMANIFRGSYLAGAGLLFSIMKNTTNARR

[4] = target: recombinant WT ZIKV NS4B (ZIKV) (UniProt Q32ZE1); assay: ITC
[5] = target: recombinant DENV-2 NS4B (mature, full-length) with an N-terminal hexahistidine tag (DENV-2) (UniProt P14340); assay: BLI
Chain of recombinant DENV-2 NS4B (mature, full-length) with an N-terminal hexahistidine tag (DENV-2) (P14340 2244-2491 limits assumed): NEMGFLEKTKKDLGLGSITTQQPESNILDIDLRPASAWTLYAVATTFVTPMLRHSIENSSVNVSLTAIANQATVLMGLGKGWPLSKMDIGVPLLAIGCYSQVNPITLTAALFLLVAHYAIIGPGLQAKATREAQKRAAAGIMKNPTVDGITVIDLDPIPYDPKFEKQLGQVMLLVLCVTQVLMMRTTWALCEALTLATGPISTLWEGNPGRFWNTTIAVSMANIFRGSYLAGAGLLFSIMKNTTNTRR

[6] = target: recombinant DENV-2 NS4B (mature, full-length) with an N-terminal hexahistidine tag (DENV-2) (UniProt P14340); assay: ITC

Chain of recombinant DENV-2 full-length NS3 (P14340 1476-2093 limits assumed): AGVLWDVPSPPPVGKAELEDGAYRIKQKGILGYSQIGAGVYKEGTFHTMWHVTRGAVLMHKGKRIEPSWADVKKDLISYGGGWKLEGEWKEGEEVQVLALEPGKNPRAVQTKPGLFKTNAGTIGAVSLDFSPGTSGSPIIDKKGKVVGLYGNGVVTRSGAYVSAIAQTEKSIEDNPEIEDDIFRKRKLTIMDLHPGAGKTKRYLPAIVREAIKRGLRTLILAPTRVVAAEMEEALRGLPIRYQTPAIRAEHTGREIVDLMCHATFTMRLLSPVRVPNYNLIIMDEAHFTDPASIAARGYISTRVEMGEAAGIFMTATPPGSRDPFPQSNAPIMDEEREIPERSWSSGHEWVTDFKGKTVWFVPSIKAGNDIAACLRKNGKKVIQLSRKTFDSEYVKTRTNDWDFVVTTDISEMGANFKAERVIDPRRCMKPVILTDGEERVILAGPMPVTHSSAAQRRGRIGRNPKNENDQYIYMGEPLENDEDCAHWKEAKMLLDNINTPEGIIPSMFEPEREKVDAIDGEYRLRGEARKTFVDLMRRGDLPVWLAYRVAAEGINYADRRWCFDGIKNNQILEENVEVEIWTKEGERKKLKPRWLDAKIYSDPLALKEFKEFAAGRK
Chain of NS4B/NS3 interaction (WT NS4B) (P14340 2244-2491): as the sequence (P14340 2244-2491 limits assumed) above
Chain of WT DENV-2 NS4B (P29990 2244-2491): as the sequence (P29990 2244-2491) above

In the case of COc1cc(N[C@H](C(=O)c2c[nH]c3ccc(OC(F)(F)F)cc23)c2ccc(Cl)cc2OC)cc(S(C)(=O)=O)c1 [JNJ-1802], the “decrease of NS3 co-IPed with NS4B” value ([1]; 10 nM JNJ-1802 added at 4 h posttransfection) is reported as 80%, the “decrease of NS3 co-IPed with NS4B” value ([1]; 10 nM JNJ-1802 added at 24 h posttransfection) is reported as 8% and the “higher binding affinity to NS4B compared to NITD-688” value (WT DENV-2 NS4B) is reported as 4.2 fold. The “higher potency in cellular assays than NITD-688” value (DENV-2 NGC strain (WT)) was ~ 100 fold, the EC50 (DENV-2 NGC strain (WT); Dengue virus, DENV2, A549, 48 h, read-out: EC50 (averaged)) was 0.019 nM and the “efficacy against four serotypes of DENV” value (four serotypes of DENV) was “picomolar to low nanomolar efficacy”. For the same compound, the EC50 (DENV-2 NGC-Nluc; Dengue virus, DENV2, Huh-7, 48 h) was 0.031 nM, the “binding to cytosolic loop of NS4B by ITC” value [2] was “not the cytosolic loop” and the “more inhibition of NS4B/NS3 interactions than NITD-688” value ([3]; ITC assay) was “approximately 4 fold”. The “inhibition of NS4B/NS3 binding” value ([3]; ITC, JNJ-1802 preincubated with NS4B) was “effectively inhibited”.
C#C[C@@]1(O)[C@H](O)[C@@H](CO)O[C@H]1n1ccc2c(N)ncnc21 [NITD-008] gave an EC50 (DENV-2 NGC-Nluc; Huh7 cells) of 380 nM.
With “NS3 used in the ITC of ZIKV NS4B/NS3 interactions (enzyme)” the Kd [4] was 3.4 µM.
For “recombinant DENV-2 full-length NS3 (from UniProt P14340 1476-2093) (enzyme)”, the Kd [5] was 13 µM, the fold increase of koff, 200 nM against 3.1 nM NITD-688 [5] was 2.6 fold and the KD with NITD-688 (molar ratio to NS4B 1:2) [6] was 26.2 µM. It also gave a KD with NITD-688 (molar ratio to NS4B 4:1) [6] of 594 µM and a Kd [6] of 12.3 µM.
